Starred links: 1 amine or outer side, 2 acyl side, 3 side chain; linkers in the order of their positions; H or OH if unused. Positions of bridges follow the written chain, without caps; N, C: chain ends. Non-standard residues stand in square brackets, D forms with d. Residues, ends and D or L forms follow the SMILES beside them. *: point of attachment. Arg(Nω-CO) = N/C(=N\C(=O)[*:3])NCCC[C@H](N[*:1])C(=O)[*:2]; Ethylenediamine = C(CN[*:2])N[*:1]; Propionyl = CCC(=O)*
Key:
[1] = molecular target: T1, Neuropeptide Y receptor type 4 (Homo sapiens, UniProt P50391); experiment: Displacement of [3H]-(9S,12S,15S,19R,E)-4-amino-N-((S)-1-(((S)-1-(((S)-1-amino-3-(4-hydroxyphenyl)-1-oxopropan-2-yl)amino)-5-guanidino-1-oxopentan-2-yl)amino)-4-methyl-1-oxopentan-2-yl)-15-(3-guanidinopropyl)-12-(4-hydroxybenzyl)-2,11,14,17,20-pentaoxo-19-(4-(propanamido-2,3-t2)butanamido)-1,3,5,10,13,16,21-heptaazacyclopentacos-3-ene-9-carboxamide from human Y4R expressed in CHO cells coexpressing Gqi5-mtAEQ under isotonic sodium containing buffer condition; format: cell-based
[2] = molecular target: T1, Neuropeptide Y receptor type 4; experiment: Binding affinity to human Y4R under sodium free condition
[3] = molecular target: T1, Neuropeptide Y receptor type 4; experiment: Displacement of [3H]-(9S,12S,15S,19R,E)-4-amino-N-((S)-1-(((S)-1-(((S)-1-amino-3-(4-hydroxyphenyl)-1-oxopropan-2-yl)amino)-5-guanidino-1-oxopentan-2-yl)amino)-4-methyl-1-oxopentan-2-yl)-15-(3-guanidinopropyl)-12-(4-hydroxybenzyl)-2,11,14,17,20-pentaoxo-19-(4-(propanamido-2,3-t2)butanamido)-1,3,5,10,13,16,21-heptaazacyclopentacos-3-ene-9-carboxamide from human Y4R expressed in CHO cells coexpressing Gqi5-mtAEQ under hypotonic sodium free buffer condition; format: cell-based
[4] = molecular target: T1, Neuropeptide Y receptor type 4; experiment: Agonist activity at human Y4R expressed in HEK293T cells by miniGsi assay relative to control; format: functional, cell-based; details: filed as agonist
[5] = molecular target: T1, Neuropeptide Y receptor type 4; experiment: Agonist activity at human Y4R expressed in CHO cells co-expressing Gqi5-mtAEQ by calcium2+ aequorin assay; format: functional, cell-based
[6] = molecular target: T2, Neuropeptide Y receptor type 2 (Homo sapiens, UniProt P49146); experiment: Displacement of [3H]propionyl-pNPY from human Y2R expressed in CHO cells; format: cell-based
T2 sequence (P49146 whole entry): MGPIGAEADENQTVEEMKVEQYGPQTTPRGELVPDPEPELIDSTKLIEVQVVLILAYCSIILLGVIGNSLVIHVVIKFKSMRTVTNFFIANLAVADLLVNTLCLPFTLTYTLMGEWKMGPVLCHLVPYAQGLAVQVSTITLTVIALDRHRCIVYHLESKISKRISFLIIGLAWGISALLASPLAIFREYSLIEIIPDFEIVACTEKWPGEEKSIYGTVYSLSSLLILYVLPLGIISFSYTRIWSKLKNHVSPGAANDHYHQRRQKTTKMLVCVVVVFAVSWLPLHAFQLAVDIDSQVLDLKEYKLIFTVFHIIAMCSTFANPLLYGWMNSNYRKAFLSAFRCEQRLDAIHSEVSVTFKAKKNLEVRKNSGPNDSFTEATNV

[7] = molecular target: T3, Neuropeptide Y receptor type 1 (Homo sapiens, UniProt P25929); experiment: Displacement of [3H]UR-MK299 from human Y1R expressed in SK-N-MC cells; format: cell-based
T3 sequence (P25929 whole entry): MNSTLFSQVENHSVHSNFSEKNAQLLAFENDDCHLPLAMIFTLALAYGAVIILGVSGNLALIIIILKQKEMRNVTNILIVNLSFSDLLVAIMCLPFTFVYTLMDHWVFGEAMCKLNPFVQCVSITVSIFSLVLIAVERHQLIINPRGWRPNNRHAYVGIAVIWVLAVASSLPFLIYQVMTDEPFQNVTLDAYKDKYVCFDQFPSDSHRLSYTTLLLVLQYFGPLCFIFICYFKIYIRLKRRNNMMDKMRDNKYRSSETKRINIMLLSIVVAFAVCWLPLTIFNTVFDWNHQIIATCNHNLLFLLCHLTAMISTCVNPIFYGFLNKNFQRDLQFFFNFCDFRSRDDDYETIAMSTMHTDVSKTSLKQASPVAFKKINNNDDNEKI

[8] = molecular target: T1, Neuropeptide Y receptor type 4; experiment: Displacement of [3H]UR-KK200 from human Y4R expressed in CHO cells co-expressing Gqi5-mtAEQ; format: cell-based
[9] = molecular target: T1, Neuropeptide Y receptor type 4; experiment: Agonist activity at human Y4R expressed in CHO cells co-expressing Gqi5-mtAEQ by calcium2+ aequorin assay relative to control; format: functional, cell-based; details: filed as agonist
[10] = molecular target: T4, Neuropeptide Y receptor type 5 (Homo sapiens, UniProt Q15761); experiment: Displacement of [3H]propionyl-pNPY from human Y5R expressed in HEC-1B cells; format: cell-based, HEC-1B cell line
T4 sequence (Q15761 whole entry): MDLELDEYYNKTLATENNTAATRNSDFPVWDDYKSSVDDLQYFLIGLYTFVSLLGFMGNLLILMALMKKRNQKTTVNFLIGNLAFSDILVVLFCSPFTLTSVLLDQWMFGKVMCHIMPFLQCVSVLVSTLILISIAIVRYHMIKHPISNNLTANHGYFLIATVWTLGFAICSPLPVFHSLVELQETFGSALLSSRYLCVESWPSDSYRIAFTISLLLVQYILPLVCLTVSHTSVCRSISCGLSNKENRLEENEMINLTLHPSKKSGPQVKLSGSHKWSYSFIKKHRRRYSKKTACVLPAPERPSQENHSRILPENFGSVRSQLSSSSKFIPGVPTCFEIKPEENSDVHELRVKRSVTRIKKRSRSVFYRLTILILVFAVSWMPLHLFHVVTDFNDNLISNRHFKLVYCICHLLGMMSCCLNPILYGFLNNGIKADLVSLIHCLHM

[11] = molecular target: T1, Neuropeptide Y receptor type 4; experiment: Agonist activity at human Y4R expressed in HEK293T cells by miniGsi assay; format: functional, cell-based
[12] = molecular target: T1, Neuropeptide Y receptor type 4; experiment: Agonist activity at human Y4R expressed in HEK293T cells incubated for 60 mins by cAMP CAMYEN assay relative to control; format: functional, cell-based; details: filed as agonist
[13] = molecular target: T1, Neuropeptide Y receptor type 4; experiment: Agonist activity at human Y4R expressed in HEK293T cells incubated for 60 mins by cAMP CAMYEN assay; format: functional, cell-based

T1 sequence (P50391 whole entry): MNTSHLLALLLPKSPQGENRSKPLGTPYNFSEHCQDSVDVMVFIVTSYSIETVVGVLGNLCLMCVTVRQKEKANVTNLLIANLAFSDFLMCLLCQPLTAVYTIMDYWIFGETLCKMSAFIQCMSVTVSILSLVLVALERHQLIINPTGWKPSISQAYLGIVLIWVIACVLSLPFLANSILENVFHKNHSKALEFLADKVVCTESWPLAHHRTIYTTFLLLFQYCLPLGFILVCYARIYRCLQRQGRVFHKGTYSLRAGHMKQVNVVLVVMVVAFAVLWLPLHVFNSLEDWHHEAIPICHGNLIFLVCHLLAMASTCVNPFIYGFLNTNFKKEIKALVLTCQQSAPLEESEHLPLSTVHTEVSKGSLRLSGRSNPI

SMILES | Emax [4] [%] | EC50 ([5]; read-out: EC50) [nM] | EC50 ([5]; read-out: pEC50 (converted)) [nM] | Ki ([6]; cho, read-out: Ki) [nM] | Ki ([6]; read-out: pKi (converted)) [nM] | Ki ([7]; read-out: pKi (converted)) [nM] | Ki ([7]; sk-n-mc, read-out: Ki) [nM] | Ki ([8]; read-out: Ki) [nM] | Emax [9] [%] | Ki ([10]; hec-1b cell line, read-out: Ki) [nM] | Ki ([10]; read-out: pKi (converted)) [nM] | EC50 [11] [nM] | Emax [12] [%] | EC50 ([13]; read-out: EC50) [nM] | further results
[3H]CC([3H])C(=O)NCCCCNC(=O)/N=C(\N)NCCCC[C@H](NC(=O)[C@H](Cc1ccc(O)cc1)NC(=O)CCCCCCC(=O)N[C@@H](Cc1ccc(O)cc1)C(=O)N[C@@H](CCCNC(=N)N)C(=O)N[C@@H](CC(C)C)C(=O)N[C@@H](CCCNC(=N)N)C(=O)N[C@@H](Cc1ccc(O)cc1)C(N)=O)C(=O)N[C@@H](CC(C)C)C(=O)N[C@@H](CCCNC(=N)N)C(=O)N[C@@H](Cc1ccc(O)cc1)C(N)=O (stereo partly drawn) | – | – | – | – | – | – | – | – | – | – | – | – | – | – | Ki ([1]; read-out: Ki): 6.7 nM; Kd [2]: 0.67 nM; Ki ([3]; read-out: Ki): 0.41 nM; Ki ([3]; read-out: pKi (converted)): 0.209 nM
CCC(=O)N[C@H]1CC(=O)NCCCCNC(=O)/N=C(\N)NCCC[C@@H](C(=O)N[C@@H](CC(C)C)C(=O)N[C@@H](CCCNC(=N)N)C(=O)N[C@@H](Cc2ccc(O)cc2)C(N)=O)NC(=O)[C@H](Cc2ccc(O)cc2)NC(=O)[C@H](CCCNC(=N)N)NC1=O | 46 | 23 | 20 | > 10000 | > 10000 | > 1000 | > 1000 | 0.11 | 64 | > 1000 | > 1000 | 8.1 | 83 | 0.2 | –
CCC(=O)N[C@H]1CCC(=O)NCCNC(=O)/N=C(\N)NCCC[C@@H](C(=O)N[C@@H](CC(C)C)C(=O)N[C@@H](CCCNC(=N)N)C(=O)N[C@@H](Cc2ccc(O)cc2)C(N)=O)NC(=O)[C@H](Cc2ccc(O)cc2)NC(=O)[C@H](CCCNC(=N)N)NC1=O (Propionyl-ERY[Arg(Nω-CO)]LRY-NH2; linker 1-4 via Ethylenediamine) | 70 | 71 | – | – | > 3160 | > 1000 | > 1000 | 0.26 | 66 | > 1000 | > 1000 | 19 | 86 | 0.41 | Ki ([6]; read-out: Ki): > 3000 nM
CCC(=O)N[C@@H]1CC(=O)N[C@@H](CCCNC(=N)N)C(=O)N[C@@H](Cc2ccc(O)cc2)C(=O)N[C@H](C(=O)N[C@@H](CC(C)C)C(=O)N[C@@H](CCCNC(=N)N)C(=O)N[C@@H](Cc2ccc(O)cc2)C(N)=O)CCCN/C(N)=N/C(=O)NCCCCNC1=O | 51 | 9 | 6.31 | > 10000 | > 10000 | > 1000 | > 1000 | 0.066 | 74 | > 1000 | > 1000 | 1.6 | 85 | 0.063 | EC50 ([13]; read-out: pEC50 (converted)): 0.0501 nM
CCC(=O)N[C@H]1CC(=O)N[C@@H](CCCNC(=N)N)C(=O)N[C@@H](Cc2ccc(O)cc2)C(=O)N[C@H](C(=O)N[C@@H](CC(C)C)C(=O)N[C@@H](CCCNC(=N)N)C(=O)N[C@@H](Cc2ccc(O)cc2)C(N)=O)CCCN/C(N)=N/C(=O)NCCCCNC1=O | 58 | 24 | 22.4 | > 10000 | > 10000 | > 1000 | > 1000 | 0.15 | 80 | > 1000 | > 1000 | 3.8 | 82 | 0.13 | –
CC(C)C[C@H](NC(=O)[C@@H]1CCCN/C(N)=N/C(=O)NCCCCNC(=O)C[C@@H](N)C(=O)N[C@@H](CCCNC(=N)N)C(=O)N[C@@H](Cc2ccc(O)cc2)C(=O)N1)C(=O)N[C@@H](CCCNC(=N)N)C(=O)N[C@@H](Cc1ccc(O)cc1)C(N)=O | 68 | 11 | – | > 10000 | > 10000 | > 1000 | > 1000 | 0.031 | 63 | > 1000 | > 1000 | 0.89 | – | – | –
CC(C)C[C@H](NC(=O)[C@@H]1CCCNC(=N)NC(=O)NCCCCNC(=O)CCC(=O)N[C@@H](CCCNC(=N)N)C(=O)N[C@@H](Cc2ccc(O)cc2)C(=O)N1)C(=O)N[C@@H](CCCNC(=N)N)C(=O)N[C@@H](Cc1ccc(O)cc1)C(N)=O | – | – | – | – | – | – | – | – | 100 | – | – | – | 113 | 0.17 | Ki ([1]; read-out: Ki): 0.076 nM; Ki ([1]; read-out: pKi (converted)): 0.0741 nM; EC50 ([13]; read-out: pEC50 (converted)): 0.162 nM; Ki ([3]; read-out: Ki): 0.011 nM; Ki ([3]; read-out: pKi (converted)): 0.00912 nM
CCC(=O)N[C@@H]1CC(=O)NCCCCNC(=O)/N=C(\N)NCCC[C@@H](C(=O)N[C@@H](CC(C)C)C(=O)N[C@@H](CCCNC(=N)N)C(=O)N[C@@H](Cc2ccc(O)cc2)C(N)=O)NC(=O)[C@H](Cc2ccc(O)cc2)NC(=O)[C@H](CCCNC(=N)N)NC1=O | 64 | 22 | – | – | > 3160 | > 1000 | > 1000 | 0.12 | 70 | > 1000 | > 1000 | 2.6 | 81 | 0.11 | Ki ([6]; read-out: Ki): > 3000 nM; Ki ([8]; read-out: pKi (converted)): 0.11 nM

From ChEMBL document CHEMBL5370598, “[3H]UR-JG102-A Radiolabeled Cyclic Peptide with High Affinity and Excellent Selectivity for the Neuropeptide Y Y4 Receptor” (J Med Chem, 2023)
